Series [1] relates to Human CD34+ cord blood (CB) cells. In words: CD34+ activity assessment (7-day expansion of pre-expanded CD34+ cells, flow cytometry). The class given is cell-based. The note with it: concentration at which compound/vehicle ratio of CD34+ cell number is >= 1.5; 7 days, with 35 nM UM0128171; Table 1. For orientation: In flow cytometry, cells or beads pass a laser one at a time.
In another series the target is T1, AhR (Homo sapiens, UniProt P35869).
T1 construct: One of the resultant clones was named HEK-XRE 11.1, and used in the reporter gene assays; endogenous in cells; host or cells: HEK-XRE 11.1 (HEK cells stably carrying the AhR-responsive luciferase reporter X4-4.27 and phRL-CMV)
T1 sequence (P35869 11-848): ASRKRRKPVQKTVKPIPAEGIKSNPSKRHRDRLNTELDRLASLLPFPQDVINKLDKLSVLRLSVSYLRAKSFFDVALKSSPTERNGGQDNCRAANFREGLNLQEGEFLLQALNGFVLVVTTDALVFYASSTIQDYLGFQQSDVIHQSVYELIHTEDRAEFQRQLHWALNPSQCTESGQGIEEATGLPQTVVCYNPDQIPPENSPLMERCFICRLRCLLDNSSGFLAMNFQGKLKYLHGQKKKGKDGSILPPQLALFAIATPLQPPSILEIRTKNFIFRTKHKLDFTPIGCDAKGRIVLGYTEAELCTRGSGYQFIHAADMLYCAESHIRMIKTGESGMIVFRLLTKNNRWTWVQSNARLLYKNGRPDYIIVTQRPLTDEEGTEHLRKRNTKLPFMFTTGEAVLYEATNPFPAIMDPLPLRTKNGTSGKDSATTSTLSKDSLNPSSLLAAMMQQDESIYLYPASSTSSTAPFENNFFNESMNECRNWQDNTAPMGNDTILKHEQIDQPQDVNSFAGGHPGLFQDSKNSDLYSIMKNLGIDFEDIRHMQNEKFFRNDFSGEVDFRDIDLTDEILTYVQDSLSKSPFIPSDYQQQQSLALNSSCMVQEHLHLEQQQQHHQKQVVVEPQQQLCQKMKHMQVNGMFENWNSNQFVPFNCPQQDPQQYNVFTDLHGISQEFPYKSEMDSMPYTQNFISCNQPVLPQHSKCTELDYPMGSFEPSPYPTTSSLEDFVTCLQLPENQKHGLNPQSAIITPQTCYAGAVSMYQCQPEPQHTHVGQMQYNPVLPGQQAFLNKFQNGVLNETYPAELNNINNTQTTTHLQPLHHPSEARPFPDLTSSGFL
In words: Inhibition of AhR-mediated gene transcription (HEK-XRE 11.1 luciferase reporter, MeBIO induction). To be noted: HEK-XRE 11.1 cells, MeBIO 0.1 nM, luminescence after 24 hours; Table 1. The class given is cell-based. The procedure, abridged: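 HEK-XRE 11.1 cells, stably carrying an AhR-responsive firefly luciferase reporter, were stimulated with 0.1 nM MeBIO and given compounds in 8-point 1:3 serial dilutions from 10 mM (stock-range figure) in duplicate. Luminescence was read after 24 h culture without Renilla normalisation. Dose-response curves were fitted by nonlinear regression.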
Background: In a reporter assay the amount or activity of a reporter protein is the signal.

In general, IC50 refers to the point on the concentration scale where inhibition reaches its midpoint. High values mean weaker potency in that assay, low ones greater potency in that assay.

A value given as a limit tells only on which side of the number the result lay.

With `Nc1c(C(=O)Nc2ccsc2)sc2ncc(C(F)(F)F)cc12` [Compound 1100], the EC1.5 in series [1] is given as under 100 nM. Also, the IC50 against AhR is under 50 nM.
The corresponding values for `Cc1nc2cc(NC(=O)c3sc4ncc(C(F)(F)F)cc4c3N)ccc2s1` [Compound 1101] are 100 to 1000 nM and under 50 nM.
In the same order, the values of `Nc1c(C(=O)Nc2ccncn2)sc2ncc(C(F)(F)F)cc12` [Compound 1102] are over 5000 nM and 50 to 500 nM.
In the same order, the values of `Nc1c(C(=O)Nc2ccccc2)sc2nc3c(cc12)CCCC3` [Compound 1104] are 100 to 1000 nM and 50 to 500 nM.
On to `COc1ccc(NC(=O)c2sc3nc4c(cc3c2N)CCCC4)cc1` [Compound 1105], for which, in series [1], the EC1.5 is on record as over 5000 nM. Also, the IC50 at AhR was in the range of 50 to 500 nM.
For `Nc1c(C(=O)Nc2ccc(F)cc2)sc2nc3c(cc12)CCCC3` [Compound 1106], the EC1.5 in series [1] fell in the range of 1000 to 5000 nM. The molecule further yielded an IC50 against AhR of 50 to 500 nM.
On to `Nc1c(C(=O)Nc2ncccn2)sc2ncc(C(F)(F)F)cc12` [Compound 1107], for which the EC1.5 in series [1] lay in the range of 1000 to 5000 nM. At AhR, this molecule displayed a concentration for half-maximal inhibition (IC50) of under 50 nM.
The corresponding values for `Nc1c(C(=O)Nc2cncnc2)sc2ncc(C(F)(F)F)cc12` [Compound 1109] are over 5000 nM and over 500 nM.
In the same order, the values of `Nc1c(C(=O)Nc2ccc3[nH]ncc3c2)sc2ncc(C(F)(F)F)cc12` [Compound 1110] are over 5000 nM and 50 to 500 nM.
In the same order, the values of `Nc1c(C(=O)Nc2ccccc2)sc2nc3c(cc12)CCCCC3` [Compound 1113] are 1000 to 5000 nM and 50 to 500 nM.
For `Cc1cnc2sc(C(=O)Nc3ccc(F)cc3)c(N)c2c1` [Compound 1115], the EC1.5 in series [1] is reported as under 100 nM. Also, the IC50 at AhR is under 50 nM.
In the same order, the values of `COc1ccc(NC(=O)c2sc3ccc(C(F)(F)F)nc3c2N)cc1` [Compound 1116] are 100 to 1000 nM and 50 to 500 nM.
The corresponding values for `Nc1c(C(=O)Nc2ccc(F)cc2)sc2ccc(C(F)(F)F)nc12` [Compound 1117] are 100 to 1000 nM and under 50 nM.
In the same order, the values of `COc1ccc(NC(=O)c2sc3ccc(C)cc3c2N)cc1` [Compound 1119] are 100 to 1000 nM and 50 to 500 nM.
`Cc1ccc2sc(C(=O)Nc3ccc(F)cc3)c(N)c2c1` [Compound 1120]: in series [1], the EC1.5 was under 100 nM. Also, the IC50 against AhR is under 50 nM.
In the same order, the values of `COc1cc(NC(=O)c2sc3ncc(C(F)(F)F)cc3c2N)ccc1F` [Compound 1121] are 100 to 1000 nM and 50 to 500 nM.
In the same order, the values of `CCOc1ccc(NC(=O)c2sc3ncc(C(F)(F)F)cc3c2N)cc1` [Compound 1122] are under 100 nM and under 50 nM.
The corresponding values for `NC(=O)c1ccc(NC(=O)c2sc3ncc(C(F)(F)F)cc3c2N)cc1` [Compound 1123] are over 5000 nM and 50 to 500 nM.
As to `CNC(=O)c1ccc(NC(=O)c2sc3ncc(C(F)(F)F)cc3c2N)cc1` [Compound 1124], the EC1.5 in series [1] was 100 to 1000 nM. Besides, at AhR, the IC50 lay within 50 to 500 nM.
As for `COC(=O)c1ccc(NC(=O)c2sc3ncc(C(F)(F)F)cc3c2N)cc1` [Compound 1125], the EC1.5 in series [1] was in the range of 100 to 1000 nM. Besides, the IC50 at AhR lay within 50 to 500 nM.
In the same order, the values of `CN(C)c1ccc(NC(=O)c2sc3ncc(C(F)(F)F)cc3c2N)cc1` [Compound 1126] are 1000 to 5000 nM and 50 to 500 nM.
The corresponding values for `Nc1c(C(=O)Nc2ccc(S(N)(=O)=O)cc2)sc2ncc(C(F)(F)F)cc12` [Compound 1127] are over 5000 nM and 50 to 500 nM.
The corresponding values for `COc1ccc(NC(=O)c2sc3ccc(C)nc3c2N)cc1` [Compound 1129] are 100 to 1000 nM and 50 to 500 nM.
For the molecule `Cc1ccc2sc(C(=O)Nc3ccc(Cl)cc3)c(N)c2c1` [Compound 1130], in series [1], the EC1.5 is on record as over 5000 nM. This molecule also registered an IC50 against AhR of 50 to 500 nM.

The values are drawn from US11696928B2, “Compounds and use thereof in the expansion of stem cells and/or progenitor cells” (UNIVERSITE DE MONTREAL, priority 2017, dated 2023).
